Reference: paper PMC5363373, “Zirconium tetraazamacrocycle complexes display extraordinary stability and provide a new strategy for zirconium-89-based radiopharmaceutical development” (Chemical Science, 2016)

Legend:
[1] = Behaviour of the complex in solution in vitro; assay type: physicochemical; details: unless a low concentration of surfactant was included
PET/CT imaging = assay type: in vivo, female NIH Swiss mice; details: normal mice; for Route of excretion: PET imaging; for PET: radioactivity at 4 h after injection / PET: radioactivity at 24 h after injection: static imaging
Procedure: PET/CT Imaging. PET imaging with 89Zr-DFO or 89Zr-DOTA was performed on healthy female NIH Swiss mice (6-8 wk old, n=6) using a small animal PET/CT scanner (eXplore VISTA model, GE Healthcare, Waukesha, WI). Before imaging, each mouse was anesthetized by inhalation of isoflurane mixed with oxygen gas (3% isoflurane for induction and 1-2% for maintenance) and a tail vein catheter was placed on the tail. The mouse was then positioned in the imaging cradle and a CT scan was performed for the subsequent attenuation correction and anatomical colocalization. After the CT scan, 89Zr-DFO or 89Zr-DOTA (11.1-12.5 MBq (300-338 µCi) in 100 µL saline/ mouse) was administered through the tail vein catheter, and a dynamic PET scan was simultaneously initiated and acquired for 1 hour to record the initial distribution and pharmacokinetics. Mice were re-anesthetized at 2, 4 and 24 hours, and a static PET scan was acquired for 20 min as late-phase scans. PET images were reconstructed using 2D ordered subset expectation maximization (2D-OSEM) algorithms with random, scatter, and attenuation corrections and then coregistered with the CT image. The PET system was calibrated using a Zr-89 phantom with known activity. Standard uptake value (SUV = [(nCi/mL) x (animal wt. (g))/ injected dose (nCi)]) and the measure of %ID/g was then calculated voxel-wise with the calibration factor and normalization to the injected dose and animal body weight. For dynamic scans, data were binned into 19 time frames with the following schemes: 6x10s, 2x30s, 3x60s, 5x5min, 3x10min. The tissue uptake curves were generated from the dynamic scans with regions of interest (ROIs) manually placed in heart, liver, kidney, bone, and muscle. Biodistribution data at 2, 4 and 24 hours were obtained from the PET images, with regions of interest placed in corresponding organs or tissues.

| SMILES | Behaviour in solution without surfactant [1] | Route of excretion (PET/CT imaging) | PET: radioactivity at 4 h after injection (PET/CT imaging) | PET: radioactivity at 24 h after injection (PET/CT imaging) |
| --- | --- | --- | --- | --- |
| NC(=O)CN1CCN(CC(N)=O)CCN(CC(N)=O)CCN(CC(N)=O)CC1.[89Zr+4] [89Zr-DOTAM] | aggregated and precipitated out of solution | – | – | – |
| O=C1CN2CCN3CCN4CCN(CC2)CC(=O)[O][89Zr]([O]1)([O]C(=O)C3)[O]C(=O)C4 [89Zr-DOTA] | – | excreted renally | nearly all the radioactivity was excreted | barely above background levels |
| CC(=O)N1CCCCCNC(=O)CCC(=O)N2CCCCCNC(=O)CCC(=O)N(CCCCCN)[O][89Zr+]([O]1)[O]2 [89Zr-DFO, reference compound] | – | excreted renally | more radioactivity accumulated in the kidneys | still visible |
